# Source: publication PMC4050370 (Nature structural & molecular biology, 2014)
# Biological target: LeuT (leucine transporter) (Aquifex aeolicus, UniProt O67854)
# Experiment: [3H]-Ala uptake in proteoliposomes
# Format: biochemical
# Conditions: Na+-dependent; 50 mM NaCl, 50 mM Tris-Mes pH 8.5, 22 °C; labelled compound
structure (smiles),measurement,value
C[C@H](N)C(=O)O [alanine],[3H]-Ala uptake in proteoliposomes,we measured Na^+-dependent alanine uptake in proteoliposomes for a large subset of mutants
